“Also recorded” adds a separate entry of the source.
What was measured:
[1] = system: human-derived normal cells; assay: Cytotoxicity panel of human-derived normal cells (overall); assay type: cell-based; settings: overall statement
Experimental: The evaluation of the off-target effects of NV651 was performed by ImQuest BioSciences Inc. (Frederick, MD, USA) by analyzing the cytotoxicity in a panel of primary cells. NV651 was evaluated at a concentration of 30 µM and five serial half-logarithmic dilutions in triplicate. The positive control compounds for each cell type were purchased from Sigma-Aldrich (St. Louis, MO, USA) and were as follows: […]

Dendritic cells = assay: Cytotoxicity, CellTiter Glo; assay type: cell-based; settings: Homo sapiens, Dendritic cell, 168 h, 7 days of treatment, read-out: IC50 (50% reduction in cell viability)
Experimental: The evaluation of the off-target effects of NV651 was performed by ImQuest BioSciences Inc. (Frederick, MD, USA) by analyzing the cytotoxicity in a panel of primary cells. NV651 was evaluated at a concentration of 30 µM and five serial half-logarithmic dilutions in triplicate. The positive control compounds for each cell type were purchased from Sigma-Aldrich (St. Louis, MO, USA) and were as follows: Unstimulated human peripheral blood mononuclear cells (PBMCs), phytohemagglutinin (PHA)-stimulated PBMCs, monocytes/macrophages, dendritic cells, hepatocytes, induced pluripotent stem cell (iPS) neurons: […] AZT, kidney cells (RPTEC): cisplatin and iPS cardiomyocytes: Doxazosin. The isolation was based on Nair, Archer. Briefly, freshly separated PBMCs from one donor were suspended in DPBS at 4 × 10^6 cells per mL and cultured in a T-75 flask. Cells were incubated for 30 min and then washed 5–7 times with DPBS to remove nonadherent cells. Cells were cultured in RPMI 1640 supplemented with 10% FBS, 2-mM L-glutamine, 25-mM HEPES, […], 100-µg/mL streptomycin, 50-ng/mL rhGM-CSF and 50-ng/mL rhIL-4 and incubated for 7 days. After the incubation period, cells were cultured in the same media with the addition of LPS (10 ng/mL) for two days. […]

HUH7 = assay: Cell proliferation assay: Acumen; assay type: cell-based; settings: Homo sapiens, Huh-7, 168 h, 7 days, read-out: Abs IC50 growth inhibition
Experimental: (§1) Compound screening and comparison of the antiproliferative effect of NV651 and sorafenib were performed by Shanghai ChemPartner Co., Ltd. (Shanghai, China). Cells were seeded in a 96-well plate at the following concentrations: LIXC-003 400 cells/well, LIXC-004 1000 cells/well, LIXC-086 5000 cells/well, LIXC-066 1250 cells/well, LIXC-012 2000 cells/well, LIXC-006 1250 cells/well, HEPG2 1000 cells/well, HUH7 2000 cells/well and Hep3B2.1-7-Luc 1000 cells/well. Cells were treated with either sorafenib or NV651 at 0.004, 0.011, 0.034, 0.103, 0.309, 0.926, 2.778, 8.333, 25 µM or an equivalent volume with DMSO.
(§2) After 7 days, cells were trypsinized and collected. Fifty microliters of cell suspension were added to 50 µL of 2-µM Calcein AM (Invitrogen, Cat# C3099, Waltham, MA, USA) diluted in HBSS and placed in a black-walled 96-well plate. The plate was left for 30 min at room temperature, followed by a scan with Acumen eX3.
(§3) Growth inhibition for direct cell counting (%) by Acumen was calculated as:(1) 100−100∗Experimental count−Blank/DMSO count −Blank

LIXC-012 = assay: Cell proliferation assay: Acumen; assay type: cell-based; settings: Homo sapiens, 168 h, 7 days, read-out: Abs IC50 growth inhibition
Experimental: as §1, §2, §3

LIXC-003 = assay: Cell proliferation assay: Acumen; assay type: cell-based; settings: Homo sapiens, 168 h, 7 days, read-out: Abs IC50 growth inhibition
Experimental: as §1, §2, §3

LIXC-066 = assay: Cell proliferation assay: Acumen; assay type: cell-based; settings: Homo sapiens, 168 h, 7 days, read-out: Abs IC50 growth inhibition
Experimental: as §1, §2, §3

LIXC-086 = assay: Cell proliferation assay: Acumen; assay type: cell-based; settings: Homo sapiens, 168 h, 7 days, read-out: Abs IC50 growth inhibition
Experimental: as §1, §2, §3

HEPG2 = assay: Cell proliferation assay: Acumen; assay type: cell-based; settings: Homo sapiens, 168 h, 7 days, read-out: Abs IC50 growth inhibition
Experimental: as §1, §2, §3

LIXC-006 = assay: Cell proliferation assay: Acumen; assay type: cell-based; settings: Homo sapiens, 168 h, 7 days, read-out: Abs IC50 growth inhibition
Experimental: as §1, §2, §3

LIXC-004 = assay: Cell proliferation assay: Acumen; assay type: cell-based; settings: Homo sapiens, 168 h, 7 days, read-out: Abs IC50 growth inhibition
Experimental: as §1, §2, §3

HEP3B2.1-7-Luc = assay: Cell proliferation assay: Acumen; assay type: cell-based; settings: Homo sapiens, 168 h, 7 days, read-out: Abs IC50 growth inhibition
Experimental: as §1, §2, §3

[2] = In vivo toxicity, body weight; settings: BALB/c nude mice; 25, 50 or 200 mg/kg daily IP for 5 days
Experimental: All the procedures related to animal handling, care and the treatment in this study were performed according to the guidelines approved by the Institutional Animal Care and Use Committee (IACUC) of Shanghai ChemPartner Ltd. (Shanghai, China) following the guidance of the Association for Assessment and Accreditation of Laboratory Animal Care (AAALAC). BALB/c nude mice were kept in individual ventilation cages at a constant temperature and humidity, with 5 animals in each cage. Animals had free access to irradiation-sterilized dry granule food during the entire study period and water. BALB/c nude mice between 6–8 weeks were treated with either 25, 50 or 200 mg/kg dissolved in 25% buffered beta OH cyclodextrin (n = 5 mice per treatment). Daily doses were given intraperitoneally (IP) for 5 days. Mice were weighted daily until the 6th day.

Bone marrow progenitors = assay: Cytotoxicity, colony formation; assay type: cell-based, human; settings: Homo sapiens, 336 h, 14 days of treatment, colonies counted
Experimental: The evaluation of the off-target effects of NV651 was performed by ImQuest BioSciences Inc. (Frederick, MD, USA) by analyzing the cytotoxicity in a panel of primary cells. NV651 was evaluated at a concentration of 30 µM and five serial half-logarithmic dilutions in triplicate. The positive control compounds for each cell type were purchased from Sigma-Aldrich (St. Louis, MO, USA) and were as follows: Unstimulated human peripheral blood mononuclear cells (PBMCs), phytohemagglutinin (PHA)-stimulated PBMCs, monocytes/macrophages, dendritic cells, hepatocytes, induced pluripotent stem cell (iPS) neurons: […] AZT, kidney cells (RPTEC): cisplatin and iPS cardiomyocytes: Doxazosin. Bone marrow progenitor cells (Invitrogen, Waltham, MA, USA) were suspended in cell culture medium (Iscove-modified Dulbecco medium) containing 15% FBS, 10% giant tumor-conditioned medium (Bone Marrow Plus, Sigma-Aldrich, St. […] Cells (1 × 10^5 cells/well) were seeded in 6-well plates containing NV651 in triplicate. Cells were incubated for 14 days, and colonies (more than 30 cells) were counted.

SMILES: CC(=O)CCC1C(=O)NC(C(C)C)C(=O)NC(Cc2cc(O)cc(F)c2)C(=O)N2CCCC(N2)C(=O)OC(C(C)=CC=CC(=O)OC(C)(C)C)CC=CC=CC(O)C(C)C1O (stereo not shown) [NV651]
- IC50 [1]: > 20 µM
- IC50 (Dendritic cells): 24.2 µM
- IC50 (HUH7): 3 nM
- IC50 (LIXC-012): 94 nM
- IC50 (LIXC-003): 9 nM
- IC50 (LIXC-066): 169 nM
- IC50 (LIXC-086): 656 nM
- IC50 (HEPG2): 6.3 nM
- IC50 (LIXC-006): 8 nM
- IC50 (LIXC-004): 4 nM
- IC50 (HEP3B2.1-7-Luc): 9 nM
- body weight change [2]: no significant weight loss or other clinical signs; also recorded: no body weight losses
- IC50 (Bone marrow progenitors): > 30 µM
